Data: ChEMBL document CHEMBL5042547, “Activable Targeted Protein Degradation Platform Based on Light-triggered Singlet Oxygen” (J Med Chem, 2022)
pEC50, pIC50, pKi: −log10 of the molar value. The source made the active and inactive calls. The calls are words filed in the database; no cut-off is given here.

Key:
[1] = tested on: MCF7; test: Induction of cell cycle arrest in human MCF7 cells assessed as accumulation of cells at G1 phase at 1 uM after irradiation for 30 mins by propidium iodide based flow cytometry analysis; assay type: functional
[2] = tested on: MCF7; test: Induction of apoptosis in human MCF7 cells at 1 uM after irradiation for 30 mins annexin V-FITC/PI double staining method; assay type: functional, cell-based
[3] = molecular target: T1, Estrogen receptor (Homo sapiens) (UniProt P03372); test: Induction of degradation of human ERalpha in human MCF7 cells at 0.01 to 1 uM incubated for 6 hrs followed by irradiated light of 460 nm for 45 mins measured after 3 hrs by immunoblot analysis; assay type: cell-based; settings: dose 0.01-1 µM, time 9.0 hrs
T1 sequence (whole entry): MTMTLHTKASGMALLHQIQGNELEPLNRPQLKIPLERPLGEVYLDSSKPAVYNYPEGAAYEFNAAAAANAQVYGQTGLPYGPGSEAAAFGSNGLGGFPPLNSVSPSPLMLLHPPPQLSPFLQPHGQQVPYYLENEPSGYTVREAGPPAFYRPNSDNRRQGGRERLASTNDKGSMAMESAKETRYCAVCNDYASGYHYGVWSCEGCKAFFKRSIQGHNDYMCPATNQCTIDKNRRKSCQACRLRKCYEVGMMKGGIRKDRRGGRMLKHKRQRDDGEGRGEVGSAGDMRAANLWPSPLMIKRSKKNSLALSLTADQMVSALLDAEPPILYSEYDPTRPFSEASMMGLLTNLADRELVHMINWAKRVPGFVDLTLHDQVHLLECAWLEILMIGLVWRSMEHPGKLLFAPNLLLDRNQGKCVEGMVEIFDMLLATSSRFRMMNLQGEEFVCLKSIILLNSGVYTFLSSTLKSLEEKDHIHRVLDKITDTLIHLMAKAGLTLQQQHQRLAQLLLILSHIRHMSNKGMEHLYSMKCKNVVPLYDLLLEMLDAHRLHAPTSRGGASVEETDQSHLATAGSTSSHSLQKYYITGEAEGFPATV

[4] = molecular target: T2, Estrogen receptor (Homo sapiens, UniProt P03372); test: Binding affinity to human ERalpha by competitive fluorometric receptor binding assay
T2 sequence (P03372 whole entry): T1 sequence (whole entry)

[5] = tested on: MCF-10A; test: Cytotoxicity against human MCF-10A cells upto 100 uM assessed as cell viability at irradiation for 15 to 45 mins measured after 72 hrs; assay type: toxicity, cell-based; settings: time 72.25-72.75 hrs
[6] = molecular target: T1, Estrogen receptor (Homo sapiens); test: Induction of degradation of human ERalpha in MCF7 cells at 0.1 uM incubated for 6 hrs followed by irradiation for 30 min measured after 2 hrs; assay type: cell-based; settings: time 8.5 hrs
[7] = molecular target: T1, Estrogen receptor (Homo sapiens); test: Induction of degradation of human ERalpha in MCF7 cells at 0.1 uM incubated for 6 hrs followed by irradiation for 30 min measured after 2 to 8 hrs; assay type: cell-based; settings: time 8.5-14.5 hrs, TDE = time-dependent effect
[8] = tested on: MCF7; test: Induction of cell cycle arrest in human MCF7 cells assessed as decrease of cells at G2/M phase after irradiation by propidium iodide based flow cytometry analysis; assay type: functional; settings: time 15-45 min, TDE = time-dependent effect
[9] = tested on: MCF7; test: Antiproliferative activity against human MCF7 cells assessed as cell viability at irradiation for 30 mins daily for 3 days; assay type: functional, cell-based; settings: MCF7, light or radiation study
[10] = molecular target: T1, Estrogen receptor (Homo sapiens); test: Induction of degradation of human ERalpha by generation of singlet oxygen incubated for 3 hrs followed by irradiated with 460 +/- 10 nm LED light for 15 mins by circular dichroism spectroscopy; settings: time 195.0 min
[11] = molecular target: T1, Estrogen receptor (Homo sapiens); test: Induction of degradation of human ERalpha in MCF7 cells assessed as ERalpha level at 0.1 uM incubated for 6 hrs followed by irradiation for 30 min measured after 16 hrs; assay type: cell-based; settings: time 22.5 hrs
[12] = molecular target: T1, Estrogen receptor (Homo sapiens); test: Induction of degradation of human ERalpha in MCF7 cells at 1 uM incubated for 6 hrs followed by irradiation for 30 min measured for 24 hrs; assay type: cell-based; settings: time 30.5 hrs
[13] = molecular target: T1, Estrogen receptor (Homo sapiens); test: Induction of degradation of human ERalpha irradiated with 460 +/- 10 nm LED light for 15 mins by gel electrophoresis
[14] = Drug uptake in human MCF7 cells assessed as peak mean fluorescence intensity measured after 6 to 12hrs by cytometric analysis; assay type: ADME, cell-based
[15] = tested on: MCF7; test: Induction of cell cycle arrest in human MCF7 cells assessed as decrease of cells at S phase after irradiation by propidium iodide based flow cytometry analysis; assay type: functional; settings: time 15-45 min, TDE = time-dependent effect
[16] = molecular target: T1, Estrogen receptor (Homo sapiens); test: Induction of degradation of human ERalpha in human MCF7 cells by generation of singlet oxygen at 1 uM in presence of N-acetyl-L-cysteine by fluorescent probe based DCFH-DA assay; assay type: cell-based
[17] = tested on: MCF7; test: Antiproliferative activity against human MCF7 cells assessed as cell viability at irradiation for 45 mins daily for 3 days; assay type: functional, cell-based; settings: MCF7, light or radiation study
[18] = molecular target: T1, Estrogen receptor (Homo sapiens); test: Induction of degradation of human ERalpha in MCF7 cells at 0.01 to 0.1 uM irradiated with 460 light for 15 to 60 mins; assay type: cell-based; settings: dose 0.01-0.1 µM, time 15-60 min
[19] = molecular target: T1, Estrogen receptor (Homo sapiens); test: Induction of degradation of human ERalpha in human MCF7 cells by generation of singlet oxygen at 1 uM in presence of glutathione by fluorescent probe based DCFH-DA assay; assay type: cell-based
[20] = tested on: MCF7; test: Induction of cell cycle arrest in human MCF7 cells assessed as transition of cells from G1 to S phase after irradiation measured after 24 hrs by propidium iodide based flow cytometry analysis; assay type: functional
[21] = molecular target: T1, Estrogen receptor (Homo sapiens); test: Induction of degradation of human ERalpha in human MCF7 cells at 1 uM incubated for 1 to 6 hrs followed by irradiated light of 460 nm for 30 mins measured after 3 hrs by immunoblot analysis; assay type: cell-based; settings: time 4.5-9.5 hrs
[22] = molecular target: T1, Estrogen receptor (Homo sapiens); test: Induction of degradation of human ERalpha in human MCF7 cells assessed as decrease in expression of cyclin D1 gene at 24 hrs; assay type: cell-based
[23] = molecular target: T1, Estrogen receptor (Homo sapiens); test: Induction of degradation of human ERalpha in human MCF7 cells assessed as decrease in expression of c-MYC gene at 24 hrs; assay type: cell-based
[24] = molecular target: T1, Estrogen receptor (Homo sapiens); test: Induction of degradation of human ERalpha in human MCF7 cells by generation of singlet oxygen at 1 uM in presence of dithiothreitol by fluorescent probe based DCFH-DA assay; assay type: cell-based
[25] = molecular target: T1, Estrogen receptor (Homo sapiens); test: Induction of degradation of human ERalpha irradiated with 460 +/- 10 nm LED light for 30 to 45 mins by gel electrophoresis; settings: time 30-45 min
[26] = tested on: MCF-10A; test: Cytotoxicity against human MCF-10A cells upto 100 uM under dark condition; assay type: toxicity, cell-based
[27] = tested on: MCF7; test: Induction of cell cycle arrest in human MCF7 cells assessed as cells at S phase after irradiation measured after 16 hrs by propidium iodide based flow cytometry analysis; assay type: functional
[28] = molecular target: T2, Estrogen receptor; test: Induction of degradation of human ERalpha in MCF7 cells irradiated with 460 light for 30 mins; assay type: cell-based
[29] = molecular target: T1, Estrogen receptor (Homo sapiens); test: Induction of human ERalpha degradation-mediated apoptosis in human MCF7 cells assessed as increase in cytochrome c release from mitochondria at 0.01 uM irradiated for 45 mins by ELISA analysis
[30] = molecular target: T1, Estrogen receptor (Homo sapiens); test: Binding affinity to human ERalpha assessed as change in enthalpy by isothermal titration calorimetry
[31] = molecular target: T1, Estrogen receptor (Homo sapiens); test: Induction of human ERalpha degradation-mediated apoptosis in human MCF7 cells assessed as increase in expression level of p53 at 0.01 uM by ELISA analysis; assay type: cell-based
[32] = tested on: MCF7; test: Antiproliferative activity against human MCF7 cells assessed as cell viability at irradiation for 15 mins measured after 72 hrs; assay type: functional, cell-based; settings: MCF7, light or radiation study
[33] = molecular target: T2, Estrogen receptor; test: Induction of degradation of human ERalpha in MCF7 cells irradiated with 460 light for 45 mins; assay type: cell-based
[34] = tested on: MCF7; test: Induction of cell cycle arrest in human MCF7 cells assessed accumulation of cells at G1 phase after irradiation measured after 16 hrs by propidium iodide based flow cytometry analysis; assay type: functional
[35] = tested on: MCF7; test: Antiproliferative activity against human MCF7 cells under dark condition; assay type: functional, cell-based
[36] = tested on: MCF7; test: Antiproliferative activity against human MCF7 cells in presence of N-acetyl-L-cysteine irradiated daily; assay type: functional, cell-based
[37] = tested on: MCF7; test: Antiproliferative activity against human MCF7 cells assessed as cell viability at irradiation for 45 mins measured after 72 hrs; assay type: functional, cell-based; settings: MCF7, light or radiation study
[38] = tested on: MCF7; test: Induction of apoptosis in human MCF7 cells assessed as late apoptotic cells at 0.01 to 1 uM irradiated 30 mins for 3 days by annexin V-FITC/PI double staining method; assay type: functional, cell-based; settings: dose 0.01-1 µM
[39] = tested on: MCF7; test: Antiproliferative activity against human MCF7 cells in presence of dithiothreitol irradiated daily; assay type: functional, cell-based
[40] = molecular target: T1, Estrogen receptor (Homo sapiens); test: Induction of degradation of human ERalpha by generation of singlet oxygen incubated for 3 hrs followed by irradiated with 460 +/- 10 nm LED light for 30 mins by circular dichroism spectroscopy; settings: time 210.0 min
[41] = molecular target: T1, Estrogen receptor (Homo sapiens); test: Induction of human ERalpha degradation-mediated apoptosis in human MCF7 cells assessed as increase in expression level of Bax at 0.01 uM by ELISA analysis; assay type: cell-based
[42] = molecular target: T1, Estrogen receptor (Homo sapiens); test: Induction of human ERalpha degradation-mediated apoptosis in human MCF7 cells assessed as increase in expression level of Bcl-2 at 0.01 uM irradiated for 45 min by ELISA analysis; assay type: cell-based
[43] = tested on: MCF7; test: Antiproliferative activity against human MCF7 cells assessed as cell viability at irradiation for 15 mins daily for 3 days; assay type: functional, cell-based; settings: MCF7, light or radiation study
[44] = tested on: MCF7; test: Induction of cell cycle arrest in human MCF7 cells assessed as accumulation of cells at G1 phase after irradiation by propidium iodide based flow cytometry analysis; assay type: functional; settings: time 15-45 min, TDE = time-dependent effect
[45] = molecular target: T1, Estrogen receptor (Homo sapiens); test: Induction of human ERalpha degradation in human MCF7 cells assessed as increase in response of cell to ABT-263-mediated Bcl-2 inhibition; assay type: cell-based
[46] = molecular target: T1, Estrogen receptor (Homo sapiens); test: Induction of degradation of human ERalpha in human MCF7 cells at 1 uM incubated for 1 to 12 hrs in dark after 3 hrs by immunoblot analysis; assay type: cell-based; settings: time 4-15 hrs
[47] = tested on: MCF7; test: Antiproliferative activity against human MCF7 cells in presence of glutathione irradiated daily; assay type: functional, cell-based
[48] = molecular target: T1, Estrogen receptor (Homo sapiens); test: Induction of human ERalpha degradation-mediated apoptosis in human MCF7 cells assessed as increase in expression level of Bak at 0.01 uM by ELISA analysis; assay type: cell-based
[49] = tested on: MCF7; test: Antiproliferative activity against human MCF7 cells assessed as cell viability at irradiation for 30 mins measured after 72 hrs; assay type: functional, cell-based; settings: MCF7, light or radiation study
[50] = molecular target: T1, Estrogen receptor (Homo sapiens); test: Induction of human ERalpha degradation-mediated apoptosis in human MCF7 cells assessed as loss of mitochondrial membrane potential at 0.01 uM irradiated for 45 mins by TMRM fluorescence based cytometric analysis; assay type: cell-based
[51] = molecular target: T1, Estrogen receptor (Homo sapiens); test: Binding affinity to human ERalpha assessed as change in entropy by isothermal titration calorimetry

Brc1ccc(-c2ccc(N(c3ccccc3)c3ccccc3)cc2)c2nsnc12
Activity [1]: inactive | Activity [2]: inactive | Activity [3]: inactive

C[C@]12CC[C@@H]3c4ccc(O)cc4CC[C@H]3[C@@H]1CC[C@@]2(O)C#Cc1ccc(-c2ccc(N(c3ccccc3)c3ccccc3)cc2)c2nsnc12
pKi [4]: 7.14 | Activity [5]: Non-Toxic | Activity [6]: Active | Activity [7]: Tde | Activity [8]: Tde | pIC50 [9]: 6.96 | Activity [10]: Active | Activity [11]: 90% | Activity [12]: Active | Activity [13]: Active | Drug uptake [14]: Active | Activity [15]: Tde | Activity [16]: inactive | pIC50 [17]: 7.66 | Activity [18]: Active | Activity [19]: inactive | Activity [20]: Active | Activity [21]: Active | Activity [22]: Active | Activity [23]: Active | Activity [24]: inactive | Activity [25]: Active | Activity [26]: Non-Toxic | Activity [27]: inactive | pEC50 [28]: 4.77 | Activity [29]: Active | deltaH [30]: -18.4 kJ/mol | Activity [31]: Active | pIC50 [32]: 5.05 | pEC50 [33]: 6.30 | Activity [34]: Active | Activity [35]: inactive | Activity [36]: inactive | pIC50 [37]: 5.23 | Activity [38]: Active | Activity [39]: inactive | Activity [40]: Active | Activity [41]: Active | Activity [42]: inactive | pIC50 [43]: 5.46 | Activity [44]: Tde | Activity [45]: Active | Activity [46]: Active | Activity [47]: inactive | Activity [48]: Active | pIC50 [49]: 5.21 | Activity [50]: Active | deltaS [51]: 52.2 J/mol/K
